How the values were obtained:
[1] = target: T1, Muscarinic acetylcholine receptor M2 (Homo sapiens, UniProt P08172)
T1 sequence (P08172 whole entry): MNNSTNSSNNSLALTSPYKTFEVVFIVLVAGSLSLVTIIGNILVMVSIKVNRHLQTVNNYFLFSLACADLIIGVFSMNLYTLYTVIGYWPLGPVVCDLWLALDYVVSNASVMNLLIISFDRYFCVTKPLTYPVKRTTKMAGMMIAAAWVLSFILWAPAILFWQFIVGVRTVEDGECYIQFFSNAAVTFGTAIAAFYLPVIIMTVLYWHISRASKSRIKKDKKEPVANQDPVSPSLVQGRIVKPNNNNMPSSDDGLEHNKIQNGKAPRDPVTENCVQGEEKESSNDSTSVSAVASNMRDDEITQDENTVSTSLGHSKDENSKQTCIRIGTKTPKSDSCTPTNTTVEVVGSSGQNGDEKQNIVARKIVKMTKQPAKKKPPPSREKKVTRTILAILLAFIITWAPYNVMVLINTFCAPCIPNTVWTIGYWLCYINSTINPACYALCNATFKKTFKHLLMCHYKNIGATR

[2] = target: Muscarinic acetylcholine receptor M3 (Rattus norvegicus, UniProt P08483)
[3] = target: T2, Muscarinic acetylcholine receptor M5 (Homo sapiens, UniProt P08912)
T2 sequence (P08912 whole entry): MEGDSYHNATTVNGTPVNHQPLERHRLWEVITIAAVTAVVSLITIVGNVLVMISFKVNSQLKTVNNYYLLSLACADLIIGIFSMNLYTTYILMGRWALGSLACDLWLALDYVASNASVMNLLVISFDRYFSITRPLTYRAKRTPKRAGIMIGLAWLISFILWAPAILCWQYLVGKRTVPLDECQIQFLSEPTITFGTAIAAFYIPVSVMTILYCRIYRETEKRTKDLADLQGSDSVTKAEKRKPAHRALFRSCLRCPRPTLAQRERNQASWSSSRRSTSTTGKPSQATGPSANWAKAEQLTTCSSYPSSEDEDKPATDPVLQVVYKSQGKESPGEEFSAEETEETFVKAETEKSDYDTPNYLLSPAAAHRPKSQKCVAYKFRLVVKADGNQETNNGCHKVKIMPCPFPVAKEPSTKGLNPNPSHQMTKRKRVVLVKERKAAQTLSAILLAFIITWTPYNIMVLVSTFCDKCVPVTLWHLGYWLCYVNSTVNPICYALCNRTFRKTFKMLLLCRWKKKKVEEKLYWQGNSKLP

[4] = target: T3, Muscarinic acetylcholine receptor M4 (Homo sapiens, UniProt P08173)
T3 sequence (P08173 whole entry): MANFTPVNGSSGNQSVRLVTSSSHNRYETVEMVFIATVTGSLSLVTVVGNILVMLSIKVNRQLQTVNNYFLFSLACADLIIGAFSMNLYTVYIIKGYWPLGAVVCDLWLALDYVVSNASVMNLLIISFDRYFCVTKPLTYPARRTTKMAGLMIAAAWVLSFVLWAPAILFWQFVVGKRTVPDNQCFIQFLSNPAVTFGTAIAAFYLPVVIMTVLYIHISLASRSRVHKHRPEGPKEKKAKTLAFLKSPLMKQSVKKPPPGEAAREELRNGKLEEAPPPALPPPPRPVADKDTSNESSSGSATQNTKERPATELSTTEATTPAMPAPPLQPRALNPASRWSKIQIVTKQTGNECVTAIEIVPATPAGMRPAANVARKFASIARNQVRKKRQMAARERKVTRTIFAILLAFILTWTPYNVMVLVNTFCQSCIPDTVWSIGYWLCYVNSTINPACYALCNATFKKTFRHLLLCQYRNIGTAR

Sequence of Muscarinic acetylcholine receptor M3 (P08483 whole entry): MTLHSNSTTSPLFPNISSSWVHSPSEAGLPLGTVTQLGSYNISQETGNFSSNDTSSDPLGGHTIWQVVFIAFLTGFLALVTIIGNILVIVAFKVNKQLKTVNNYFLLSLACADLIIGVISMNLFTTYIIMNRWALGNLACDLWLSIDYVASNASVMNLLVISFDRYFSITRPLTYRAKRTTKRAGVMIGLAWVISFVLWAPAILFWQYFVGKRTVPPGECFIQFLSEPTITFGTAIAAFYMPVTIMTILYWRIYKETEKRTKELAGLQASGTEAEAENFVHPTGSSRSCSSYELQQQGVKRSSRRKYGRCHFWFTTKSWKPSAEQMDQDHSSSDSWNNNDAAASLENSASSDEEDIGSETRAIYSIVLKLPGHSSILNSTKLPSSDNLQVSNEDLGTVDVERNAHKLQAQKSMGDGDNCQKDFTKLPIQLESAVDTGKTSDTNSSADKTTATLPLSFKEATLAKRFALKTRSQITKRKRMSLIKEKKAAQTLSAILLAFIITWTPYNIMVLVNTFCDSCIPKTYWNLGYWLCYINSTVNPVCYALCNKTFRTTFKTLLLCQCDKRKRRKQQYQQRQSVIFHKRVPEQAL

Structure (SMILES)	Ki [1] [nM]	Ki [2] [nM]	Ki [3] [nM]	Ki [4] [nM]
NC1=COC=C(CN2CCC(NC(=O)[C@](O)(c3ccccc3)[C@@H]3CCC(F)(F)C3)CC2)N1 [Compound A]	540	2.6	7.7	15
NC(=O)C(c1ccccc1)(c1ccccc1)[C@@H]1CCN(CCc2ccc3c(c2)CCO3)C1 [Enablex]			2.3	8.6

From BindingDB's records for PubMed 11303071 (Banyu Pharmaceutical, 2001)
